The values below come from article PMC5622171 (Nature Communications, 2017).

The target in data set [1] is T1, hPXR (Homo sapiens, UniProt O75469).
T1 sequence (O75469 1-434): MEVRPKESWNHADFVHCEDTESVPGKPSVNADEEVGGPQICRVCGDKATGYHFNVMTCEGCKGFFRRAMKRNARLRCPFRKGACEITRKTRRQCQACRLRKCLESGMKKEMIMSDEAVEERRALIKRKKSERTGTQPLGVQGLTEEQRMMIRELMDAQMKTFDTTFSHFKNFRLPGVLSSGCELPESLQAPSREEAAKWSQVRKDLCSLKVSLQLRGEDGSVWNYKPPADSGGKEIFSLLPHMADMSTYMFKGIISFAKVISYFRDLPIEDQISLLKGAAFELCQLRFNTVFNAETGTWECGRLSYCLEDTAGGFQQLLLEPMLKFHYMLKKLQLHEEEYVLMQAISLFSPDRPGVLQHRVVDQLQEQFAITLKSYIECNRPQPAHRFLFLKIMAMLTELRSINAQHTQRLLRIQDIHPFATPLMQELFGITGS
In words: in vitro.

Data set [2] addresses T2, hPXR (Homo sapiens, UniProt O75469).
T2 sequence (O75469 146-433 limits assumed): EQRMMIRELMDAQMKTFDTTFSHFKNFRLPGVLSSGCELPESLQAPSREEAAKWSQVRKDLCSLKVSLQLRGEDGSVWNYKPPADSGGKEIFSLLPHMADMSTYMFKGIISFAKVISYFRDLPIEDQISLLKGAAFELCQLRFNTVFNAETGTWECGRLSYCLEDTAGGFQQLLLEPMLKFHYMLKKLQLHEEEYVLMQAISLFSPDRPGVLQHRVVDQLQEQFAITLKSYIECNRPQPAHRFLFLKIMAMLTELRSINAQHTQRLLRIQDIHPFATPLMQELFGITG
In words: in vitro. The following applies: pH 7.5.

For the next data set, the system named is LS180 cells (parental). In words: CellTiter-Glo cytotoxicity assay. The following applies: Homo sapiens, LS180, 96 h.
For another data set, the system named is SNU-C4 cells. In words: CellTiter-Glo cytotoxicity assay. The following applies: Homo sapiens, SNU-C4, 96 h. For orientation: ATP-based viability assays read luminescence as a measure of living cells.
The test system of data set [3] is LS180 cells with stable exogenous expression of hPXR. In words: CellTiter-Glo cytotoxicity assay. The following applies: Homo sapiens, LS180, 96 h.
The test system of another data set is CYP3A4. In words: Midazolam metabolism in primary human hepatocytes (LC/MS/MS). The following applies: 1.6 µM RIF or 0.5 µM or 5 µM PTX, 72 h.
Data set [4] concerns the target T3, mouse nuclear receptor corepressor, amino acids 1958–2401 (pBIND-mNCoR) (mouse, UniProt Q60974 1958-2401).
T3 construct: mNCoR (nuclear receptor corepressor); source: LS180 cells, co-transfected (CheckMate mammalian two-hybrid fusion)
T3 sequence (looked up): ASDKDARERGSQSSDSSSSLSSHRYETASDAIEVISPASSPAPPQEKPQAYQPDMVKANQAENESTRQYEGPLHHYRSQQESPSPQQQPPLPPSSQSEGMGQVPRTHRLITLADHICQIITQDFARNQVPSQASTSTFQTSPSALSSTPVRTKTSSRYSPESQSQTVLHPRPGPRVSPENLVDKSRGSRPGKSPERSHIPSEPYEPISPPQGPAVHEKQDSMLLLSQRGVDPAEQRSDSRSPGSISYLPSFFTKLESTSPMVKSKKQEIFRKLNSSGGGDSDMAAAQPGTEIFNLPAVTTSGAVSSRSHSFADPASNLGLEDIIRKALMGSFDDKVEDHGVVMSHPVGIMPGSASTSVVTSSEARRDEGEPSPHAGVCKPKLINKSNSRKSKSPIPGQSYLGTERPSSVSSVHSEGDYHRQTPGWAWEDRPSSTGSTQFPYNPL
In words: two-hybrid; CheckMate mammalian two-hybrid in LS180 cells: pACT-hPXR plasmid, pBIND-coregulator plasmid and pG5-luc; firefly luciferase normalised to Renilla; cells treated with SPA70 or SJB7. The following applies: partners not purified.

In data set [5] the target is T4, transcriptional mediator/intermediary factor 2 (pBIND-TIF2) (UniProt Q15596 1-1464).
T4 construct: source: LS180 cells, co-transfected (CheckMate mammalian two-hybrid fusion)
The description is as above. The following applies: partners not purified.

Data set [6] deals with T5, steroid receptor coactivator 1 (pBIND-SRC-1) (UniProt Q15788 1-1441).
T5 construct: source: LS180 cells, co-transfected (CheckMate mammalian two-hybrid fusion)
Described as above. The following applies: partners not purified.

Data set [7] concerns the target silencing mediator for retinoid or thyroid hormone receptors, SMRTτ amino acids 2077–2471 (pBIND-SMRTτ). The data set is described as above.
For data set [8], the target named is T6, hPXR ligand-binding domain (residues 130–434) (human, UniProt O75469 130-434).
T6 construct: synthetic cDNA with E. coli codons in pETDuet1 (NcoI/HindIII); For crystallization it was co-expressed from the same pETDuet1 vector with mouse SRC-1 (residues 623–710); for HDX it was expressed alone; also called hPXR LBD; source: E. coli BL21(DE3), purified (Ni-NTA; for crystallization also MonoS and desalting)
T6 sequence (looked up): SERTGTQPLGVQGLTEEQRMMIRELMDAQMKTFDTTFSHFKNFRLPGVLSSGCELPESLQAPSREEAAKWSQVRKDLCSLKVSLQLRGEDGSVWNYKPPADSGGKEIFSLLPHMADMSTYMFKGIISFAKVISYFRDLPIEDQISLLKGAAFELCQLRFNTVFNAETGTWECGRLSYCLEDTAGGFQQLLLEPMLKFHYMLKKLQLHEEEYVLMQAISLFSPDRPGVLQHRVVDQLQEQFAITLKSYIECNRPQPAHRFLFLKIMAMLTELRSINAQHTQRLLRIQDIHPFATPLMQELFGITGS
In words: HDX-MS; hPXR LBD 0.1 mg/ml in 20 mM Tris-HCl pH 7.8, 250 mM NaCl, 5 mM DTT; ligand 1:10 for 1 h (SJB7 or SPA70), then cofactor peptide 1:10 for 1 h; exchange at room temperature. The following applies: both partners purified.

Where two headings read alike, the source gives them in different places.

Chain of silencing mediator for retinoid or thyroid hormone receptors, SMRTτ amino acids 2077–2471 (pBIND-SMRTτ) (Q9Y618 2077-2471): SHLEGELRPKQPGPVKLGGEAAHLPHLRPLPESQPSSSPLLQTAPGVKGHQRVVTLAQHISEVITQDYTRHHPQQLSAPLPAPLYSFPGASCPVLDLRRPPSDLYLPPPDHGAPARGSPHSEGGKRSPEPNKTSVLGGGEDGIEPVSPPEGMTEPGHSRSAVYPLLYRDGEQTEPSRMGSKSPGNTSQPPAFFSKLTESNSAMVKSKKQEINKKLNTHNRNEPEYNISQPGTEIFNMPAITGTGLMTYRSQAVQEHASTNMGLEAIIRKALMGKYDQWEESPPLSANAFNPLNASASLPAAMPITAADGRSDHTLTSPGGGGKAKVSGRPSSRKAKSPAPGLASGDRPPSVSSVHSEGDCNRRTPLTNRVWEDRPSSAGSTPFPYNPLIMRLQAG
T4 sequence (Q15596 whole entry, the tested form may be a part): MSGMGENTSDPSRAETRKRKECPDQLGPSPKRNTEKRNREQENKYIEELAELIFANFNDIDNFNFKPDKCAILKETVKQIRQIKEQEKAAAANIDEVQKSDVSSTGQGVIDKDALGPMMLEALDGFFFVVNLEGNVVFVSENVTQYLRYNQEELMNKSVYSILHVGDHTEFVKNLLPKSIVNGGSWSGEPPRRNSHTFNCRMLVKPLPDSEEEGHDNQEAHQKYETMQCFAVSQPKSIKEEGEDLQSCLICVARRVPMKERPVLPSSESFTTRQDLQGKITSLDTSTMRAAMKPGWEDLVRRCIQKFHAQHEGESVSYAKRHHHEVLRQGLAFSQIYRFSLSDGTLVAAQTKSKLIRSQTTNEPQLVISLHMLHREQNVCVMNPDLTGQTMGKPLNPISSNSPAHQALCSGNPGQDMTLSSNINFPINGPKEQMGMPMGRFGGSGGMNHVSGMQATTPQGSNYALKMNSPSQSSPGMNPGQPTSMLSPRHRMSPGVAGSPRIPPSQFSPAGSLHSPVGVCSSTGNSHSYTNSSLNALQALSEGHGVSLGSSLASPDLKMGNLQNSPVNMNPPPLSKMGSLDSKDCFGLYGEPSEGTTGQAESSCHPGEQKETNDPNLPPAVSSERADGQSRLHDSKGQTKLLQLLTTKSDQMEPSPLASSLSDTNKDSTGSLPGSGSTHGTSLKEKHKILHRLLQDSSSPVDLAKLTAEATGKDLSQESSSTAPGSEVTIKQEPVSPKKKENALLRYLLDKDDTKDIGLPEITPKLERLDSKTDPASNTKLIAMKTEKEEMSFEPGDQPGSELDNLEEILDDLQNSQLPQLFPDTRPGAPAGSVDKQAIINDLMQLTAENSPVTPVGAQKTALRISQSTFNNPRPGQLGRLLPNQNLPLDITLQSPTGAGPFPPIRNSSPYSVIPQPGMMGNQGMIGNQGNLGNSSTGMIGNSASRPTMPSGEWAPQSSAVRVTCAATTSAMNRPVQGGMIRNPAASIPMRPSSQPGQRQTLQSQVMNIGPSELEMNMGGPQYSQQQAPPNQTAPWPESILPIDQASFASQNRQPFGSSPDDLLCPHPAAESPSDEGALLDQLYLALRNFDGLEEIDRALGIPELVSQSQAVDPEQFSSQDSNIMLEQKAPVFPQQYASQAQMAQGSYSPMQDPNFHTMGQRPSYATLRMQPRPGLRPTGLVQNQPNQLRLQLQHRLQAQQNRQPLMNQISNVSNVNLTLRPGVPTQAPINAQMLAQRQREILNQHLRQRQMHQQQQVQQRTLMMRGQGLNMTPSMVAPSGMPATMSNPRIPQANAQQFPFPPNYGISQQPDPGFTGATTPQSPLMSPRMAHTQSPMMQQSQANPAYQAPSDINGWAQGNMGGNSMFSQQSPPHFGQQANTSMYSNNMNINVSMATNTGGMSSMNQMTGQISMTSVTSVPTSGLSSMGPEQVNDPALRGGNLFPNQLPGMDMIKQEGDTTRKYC
T5 sequence (Q15788 whole entry, the tested form may be a part): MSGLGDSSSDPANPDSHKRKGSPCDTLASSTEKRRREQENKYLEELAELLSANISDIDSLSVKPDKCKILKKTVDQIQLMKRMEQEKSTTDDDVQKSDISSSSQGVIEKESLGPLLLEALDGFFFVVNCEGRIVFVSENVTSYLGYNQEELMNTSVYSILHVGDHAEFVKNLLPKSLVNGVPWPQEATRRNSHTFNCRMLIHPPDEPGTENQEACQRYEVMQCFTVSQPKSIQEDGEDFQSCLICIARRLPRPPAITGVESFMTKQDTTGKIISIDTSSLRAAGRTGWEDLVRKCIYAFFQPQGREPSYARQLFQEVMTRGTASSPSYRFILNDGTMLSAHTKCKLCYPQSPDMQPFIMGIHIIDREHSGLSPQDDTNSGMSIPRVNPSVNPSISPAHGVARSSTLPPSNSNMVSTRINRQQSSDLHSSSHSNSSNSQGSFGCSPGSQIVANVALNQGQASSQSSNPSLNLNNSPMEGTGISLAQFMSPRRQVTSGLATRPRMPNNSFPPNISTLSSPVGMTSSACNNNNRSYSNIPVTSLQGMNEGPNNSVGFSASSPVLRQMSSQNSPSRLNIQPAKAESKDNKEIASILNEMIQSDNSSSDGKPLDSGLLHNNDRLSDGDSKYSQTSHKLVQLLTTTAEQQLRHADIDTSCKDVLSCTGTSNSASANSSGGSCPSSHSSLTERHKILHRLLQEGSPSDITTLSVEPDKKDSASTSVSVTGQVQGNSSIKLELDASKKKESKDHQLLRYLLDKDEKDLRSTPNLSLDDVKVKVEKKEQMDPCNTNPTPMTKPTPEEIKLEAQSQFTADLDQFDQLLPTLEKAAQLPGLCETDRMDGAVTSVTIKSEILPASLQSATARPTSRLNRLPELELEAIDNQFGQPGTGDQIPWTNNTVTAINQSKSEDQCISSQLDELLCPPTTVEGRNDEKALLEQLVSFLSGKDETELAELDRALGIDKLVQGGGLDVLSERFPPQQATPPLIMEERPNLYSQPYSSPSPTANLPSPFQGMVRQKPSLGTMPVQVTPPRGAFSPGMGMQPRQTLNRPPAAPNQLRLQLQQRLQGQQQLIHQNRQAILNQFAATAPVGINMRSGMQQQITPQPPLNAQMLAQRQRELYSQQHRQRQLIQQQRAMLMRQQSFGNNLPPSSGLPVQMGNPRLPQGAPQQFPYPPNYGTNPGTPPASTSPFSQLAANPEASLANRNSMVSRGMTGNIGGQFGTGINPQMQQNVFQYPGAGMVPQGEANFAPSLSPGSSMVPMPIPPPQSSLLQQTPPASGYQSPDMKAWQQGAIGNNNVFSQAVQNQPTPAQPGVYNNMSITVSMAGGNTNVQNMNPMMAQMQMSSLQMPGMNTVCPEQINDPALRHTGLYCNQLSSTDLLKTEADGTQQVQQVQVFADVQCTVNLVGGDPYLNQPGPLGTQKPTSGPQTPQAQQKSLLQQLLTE

In general, EC50 refers to the concentration at which the effect is half-maximal. Read a low EC50 as a more potent agent. For orientation: Ki means a dissociation constant, usually derived from enzyme kinetics or from competition with a known ligand. A higher Ki goes with weaker binding. For `COc1cc(C#N)c(Cl)cc1-n1nnc(S(=O)(=O)c2ccc(C(C)(C)C)cc2)c1C` [SJC10], on hPXR [1], the response was half-maximal at 2400 ± 150 nM (EC50 at 24 h). At hPXR [2], this molecule yielded an IC50 at 30 min of 760 ± 40 nM and a Ki at 30 min of 550 ± 30 nM.
In the case of `CC(=O)O[C@H]1C(=O)[C@@]2(C)[C@H]([C@H](OC(=O)c3ccccc3)[C@]3(O)C[C@H](OC(=O)[C@H](O)[C@@H](NC(=O)c4ccccc4)c4ccccc4)C(C)=C1C3(C)C)[C@]1(OC(C)=O)CO[C@@H]1C[C@@H]2O` [paclitaxel], the IC50 in the data set with LS180 cells (parental) (read-out: LS180 IC50, Parental cells/SPA70 (10 µM), 96 h) was 14.2 nM; in the data set on LS180 cells (parental) (read-out: LS180 IC50, Parental cells/vehicle, 96 h), 11.3 nM; in the data set on SNU-C4 cells (read-out: SNU-C4 IC50, siNT+SPA70, 96 h) it was 9.3 ± 2.6 nM; in the data set with SNU-C4 cells (read-out: SNU-C4 IC50, siNT, 96 h), 23.2 ± 4.4 nM; in the data set with SNU-C4 cells (read-out: SNU-C4 IC50, siPXR_1, 96 h) it was 6.5 ± 3.4 nM; in the data set on SNU-C4 cells (read-out: SNU-C4 IC50, siPXR_2, 96 h), 7.4 ± 3.1 nM. Further, the IC50 was found to be 14.1 ± 2.8 nM with SNU-C4 cells (read-out: SNU-C4 IC50, siPXR_3, 96 h); 5.9 ± 2 nM in the data set with SNU-C4 cells (read-out: SNU-C4 IC50, siPXR_4, 96 h); 9.9 ± 1.1 nM in the data set with SNU-C4 cells (read-out: SNU-C4 IC50, siPXR_pool, 96 h); 17.3 ± 0.1 nM in data set [3] (read-out: LS180 IC50, hPXR overexpression/SPA70 (10 µM), 96 h); 61.2 nM in [3] (read-out: LS180 IC50, hPXR overexpression/vehicle, 96 h). The “Induction of metabolism of midazolam to 1′-OH-midazolam” value in the data set with CYP3A4 is on record as “robustly induced the metabolism of midazolam”.

B1: human pregnane X receptor (pACT-hPXR) (natural protein, UniProt O75469 1-434, looked up)
chain: MEVRPKESWNHADFVHCEDTESVPGKPSVNADEEVGGPQICRVCGDKATGYHFNVMTCEGCKGFFRRAMKRNARLRCPFRKGACEITRKTRRQCQACRLRKCLESGMKKEMIMSDEAVEERRALIKRKKSERTGTQPLGVQGLTEEQRMMIRELMDAQMKTFDTTFSHFKNFRLPGVLSSGCELPESLQAPSREEAAKWSQVRKDLCSLKVSLQLRGEDGSVWNYKPPADSGGKEIFSLLPHMADMSTYMFKGIISFAKVISYFRDLPIEDQISLLKGAAFELCQLRFNTVFNAETGTWECGRLSYCLEDTAGGFQQLLLEPMLKFHYMLKKLQLHEEEYVLMQAISLFSPDRPGVLQHRVVDQLQEQFAITLKSYIECNRPQPAHRFLFLKIMAMLTELRSINAQHTQRLLRIQDIHPFATPLMQELFGITGS
notes: human pregnane X receptor (hPXR) in pACT; source: LS180 cells, co-transfected (CheckMate mammalian two-hybrid fusion)
B1: the “fold increase of the association with SPA70” value amounted to 2.1 fold in data set [4] and 1.8 fold in data set [7]. In addition, the “fold increase of the association with SJB7” value in data set [5] amounted to 1.6 fold; in data set [6] it was 1.8 fold.

B2: NCoR1-3 peptide (peptide)
peptide: ASNLGLEDIIRKALMGSFD
notes: nuclear receptor corepressor (NCoR) cofactor peptide NCoR1-3
Consider B2, for which, in data set [8], the binding result is given as “binds”.
